Experimental data from the NIST ThermoML archive (doi:10.1016/j.jct.2010.04.013).

Test: mn = molality of the nth substance listed, in mol/kg
Conditions: 101 kPa, Liquid; for mass density: Vibrating tube method; for speed of sound: Pulse-echo method

O=S(=O)([O-])C(F)(F)F.[Na+] [sodium trifluoromethanesulfonate] + C[S+](C)[O-]
Conditions | mass density, 293.15 K [kg/m3] | mass density, 298.15 K [kg/m3] | mass density, 303.15 K [kg/m3] | mass density, 313.15 K [kg/m3] | mass density, 323.15 K [kg/m3] | mass density, 333.15 K [kg/m3] | speed of sound, 298.15 K [m/s]
m1 = 0.02641 | 1102.59 | 1097.57 | 1092.55 | 1082.51 | 1072.47 | 1062.44 | –
m1 = 0.0331 | 1103.2 | 1098.17 | 1093.52 | 1083.11 | 1073.08 | 1063.05 | –
m1 = 0.04651 | 1104.41 | 1099.38 | 1094.37 | 1084.33 | 1074.31 | 1064.27 | 1482.7
m1 = 0.06041 | 1105.66 | 1100.64 | 1095.62 | 1085.59 | 1075.56 | 1065.53 | 1482.2
m1 = 0.0788 | 1107.34 | 1102.31 | 1097.29 | 1087.27 | 1077.24 | 1067.21 | 1481.6
m1 = 0.09603 | 1108.91 | 1103.88 | 1098.86 | 1088.84 | 1078.81 | 1068.79 | 1481
m1 = 0.1218 | 1111.26 | 1106.23 | 1101.22 | 1091.19 | 1081.17 | 1071.16 | 1480.1
m1 = 0.1568 | 1114.49 | 1109.45 | 1104.45 | 1094.42 | 1084.4 | 1074.39 | 1479
m1 = 0.1917 | 1117.71 | 1112.68 | 1107.66 | 1097.64 | 1087.62 | 1077.62 | 1477.6
m1 = 0.2205 | 1120.39 | 1115.36 | 1110.33 | 1100.32 | 1090.31 | 1080.3 | 1476.5
m1 = 0.2625 | 1124.33 | 1119.3 | 1114.27 | 1104.24 | 1094.22 | 1084.21 | 1475
m1 = 0.2925 | – | – | – | – | – | – | 1473.9

[O-][Cl+3]([O-])([O-])[O-].[O-][Cl+3]([O-])([O-])[O-].[Sr+2] [strontium perchlorate] + CO
Conditions | mass density, 283.15 K [kg/m3] | mass density, 288.15 K [kg/m3] | mass density, 293.15 K [kg/m3] | mass density, 298.15 K [kg/m3] | mass density, 303.15 K [kg/m3] | mass density, 308.15 K [kg/m3] | mass density, 313.15 K [kg/m3] | speed of sound, 298.15 K [m/s]
m1 = 0.06323 | 814.327 | 809.615 | 804.898 | 800.168 | 795.42 | 790.66 | 785.866 | 1108
m1 = 0.07864 | 817.708 | 812.989 | 808.269 | 803.533 | 798.779 | 794.012 | 789.214 | 1109.7
m1 = 0.09378 | 821.019 | 816.297 | 811.567 | 806.826 | 802.074 | 797.297 | 792.492 | 1111.1
m1 = 0.1093 | 824.484 | 819.755 | 815.021 | 810.274 | 805.504 | 800.727 | 795.92 | 1112.6
m1 = 0.1234 | 827.609 | 822.874 | 818.133 | 813.381 | 808.608 | 803.819 | 799.011 | 1114
m1 = 0.154 | 834.44 | 829.692 | 824.939 | 820.172 | 815.389 | 810.594 | 805.771 | 1116.9
m1 = 0.1834 | 841.064 | 836.304 | 831.54 | 826.763 | 821.965 | 817.158 | 812.326 | 1120
m1 = 0.2113 | 847.498 | 842.723 | 837.945 | 833.161 | 828.36 | 823.539 | 818.693 | 1122.7
m1 = 0.2388 | 853.778 | 848.993 | 844.206 | 839.406 | 834.589 | 829.75 | 824.9 | 1125.5
m1 = 0.266 | 860.252 | 855.456 | 850.654 | 845.848 | 841.026 | 836.183 | 831.317 | 1128.2
m1 = 0.2946 | 867.084 | 862.275 | 857.464 | 852.642 | 847.803 | 842.939 | 838.069 | 1131.4

[O-][Cl+3]([O-])([O-])[O-].[O-][Cl+3]([O-])([O-])[O-].[Sr+2] [strontium perchlorate] + C[S+](C)[O-]
Conditions | mass density, 293.15 K [kg/m3] | mass density, 298.15 K [kg/m3] | mass density, 303.15 K [kg/m3] | mass density, 313.15 K [kg/m3] | mass density, 323.15 K [kg/m3] | mass density, 333.15 K [kg/m3] | speed of sound, 298.15 K [m/s]
m1 = 0.02541 | 1105.84 | 1100.82 | 1095.81 | 1085.8 | 1075.79 | 1065.77 | –
m1 = 0.03174 | 1107.23 | 1102.22 | 1097.22 | 1087.21 | 1077.21 | 1067.2 | 1485.7
m1 = 0.04183 | 1109.48 | 1104.48 | 1099.47 | 1089.48 | 1079.49 | 1069.48 | 1486.1
m1 = 0.05362 | 1112.12 | 1107.12 | 1102.12 | 1092.14 | 1082.16 | 1072.17 | 1486.7
m1 = 0.06535 | 1114.75 | 1109.75 | 1104.76 | 1094.79 | 1084.82 | 1074.85 | 1487.3
m1 = 0.08369 | 1118.88 | 1113.89 | 1108.92 | 1098.96 | 1089.01 | 1079.07 | 1488.2
m1 = 0.1061 | 1123.96 | 1118.98 | 1114.01 | 1104.08 | 1094.14 | 1084.22 | 1489.3
m1 = 0.1303 | 1129.53 | 1124.56 | 1119.6 | 1109.69 | 1099.79 | 1089.89 | 1490.4
m1 = 0.1512 | 1134.32 | 1129.36 | 1124.42 | 1114.52 | 1104.65 | 1094.78 | 1491.5
m1 = 0.1771 | 1140.37 | 1135.43 | 1130.49 | 1120.62 | 1110.77 | 1100.92 | 1492.6
m1 = 0.1981 | 1145.33 | 1140.39 | 1135.46 | 1125.62 | 1115.78 | 1105.96 | 1493.7
